Results taken from PMC6315844, “Two Novel Multi-Functional Peptides from Meat and Visceral Mass of Marine Snail Neptunea arthritica cumingii and Their Activities In Vitro and In Vivo” (Marine Drugs, 2018).
No end group written: not given here.

Legend:
[1] = target: α-glucosidase (from yeast); test: α-Glucosidase inhibitory activity; format: biochemical; conditions: natural purified peptide; Figure 3a; tests repeated three times; read-out: EC50 values of active peptides: α-glucosidase
Excerpt: (§1) DPPH, angiotensin-converting enzyme (0.25 U·mL^−1, from the rabbit lung), N-hippuryl-His-Leu hydrate (HHL), hippuric acid, and amino acid standards were purchased from Sigma-Aldrich (Shanghai, China). α-Glucosidase protease (50 U/mg, from yeast), α-amylase protease (50 U/mg, from Bacillus subtilis), acarbose, 4-nitrophenyl-β-D-galactopyranoside, 6-aminoquinolyl-N-hydroxysuccinimidyl carbamate (AQC), ribonuclease (13,700 Da, from the bovine pancreas), aprotinin hydrochloride (6511 Da, from the bovine lung), angiotensin II (1046 Da), and L-serine (105 Da) were purchased from Yuanye Biological Technology Co. (Shanghai, China). Trypsin (250 U/mg), pepsin (250 U/mg), Sephadex G25 gel, nifedipine, and vitamin C were purchased from Solarbio (Beijing, China). Transgenic zebrafish Tg (krt4:NTR-hKikGR)^cy17 are maintained in our lab. All chemicals and reagents used for HPLC were of chromatographic grade and other chemicals and reagents were of analytical grade.
(§2) α-Amylase and α-glucosidase inhibitory activities were assayed as described by Uraipong et al.. Acarbose was used as a positive control. The inhibitory activity of active peptides was expressed as the EC50 value.

[2] = Hydroxyl radical scavenging activity; conditions: natural purified peptide; Figure 3a; tests repeated three times; read-out: EC50 values of active peptides: OH
Experimental: The hydroxyl radical scavenging activity of peptide fractions was determined according to the methods described by Dong et al.. Vitamin C was used as a positive control. The hydroxyl radical activity of active peptides was evaluated by EC50.

[3] = test system: Tg (krt4:NTR-hKikGR)cy17 zebrafish; test: In vivo antioxidant activity in MTZ-treated transgenic zebrafish embryos (skin fluorescent spots); design: species or system zebrafish (Danio rerio); conditions: 10 mM MTZ, 24 h, 28 °C, n = 10
Excerpt: For Tg (krt4:NTR-hKikGR)^cy17 zebrafish, MTZ treatment can lead to ROS overproduction, apoptosis of skin cells, and reduction of fluorescence spots on skin; thus, this model is used to assess ROS scavenging capacity of sample by measuring the growth rate of fluorescent spots (FS) on the skin of Tg (krt4:NTR-hKikGR)^cy17 transgenic zebrafish. Sample with antioxidant activity can remove ROS from transgenic zebrafish and prevent the skin cell apoptosis.
The number of fluorescence spots on the skin will increase after incubation with antioxidant. Thus, we can evaluate the ROS scavenging ability of samples on the basis of changes in the number of fluorescence spots compared with the MTZ-treatment. The in vivo antioxidant activity of the active peptides was evaluated according to previously described methods with some modification using the transgenic zebrafish line Tg (krt4:NTR-hKikGR)^cy17. Twenty-four-hour-old transgenic zebrafish embryos were added to 24-well cell culture plates (10 embryos/well) and incubated with 2 mL of 10 mM MTZ (dissolved in fish water) and active peptides for 24 h at 28 °C. […] After incubation, zebrafish embryos were anesthetized with tricaine (0.16%, w/v), and fluorescence was observed using an FSX100 Bio Imaging Navigator instrument. FS were counted using ImagePro-Plus, and the in vivo antioxidant activity (%) of active peptides was determined by Equation 1. […]

[4] = DPPH radical scavenging activity; conditions: for DPPH Radical Scavenging Activity (%): fractions purified from M-F and VM-F using HILIC, all at the same concentration (not given), n = 3, mean ± SD; for EC50: natural purified peptide, Figure 3a, tests repeated three times, read-out: EC50 values of active peptides: DPPH
Experimental: The DPPH radical scavenging activity of the two peptide fractions was determined according to the methods described by Lee et al.. Vitamin C was used as a positive control. The EC50 values for DPPH radical scavenging was determined.

[5] = target: T1, angiotensin-converting enzyme (from the rabbit lung) (Oryctolagus cuniculus, UniProt P12822); test: ACE-inhibitory activity; format: biochemical; conditions: for ACE-Inhibitory Activity (%): fractions purified from M-F and VM-F using HILIC, all at the same concentration (not given), n = 3, mean ± SD; for EC50: natural purified peptide, Figure 3a, tests repeated three times, read-out: EC50 values of active peptides: ACE
T1 construct: angiotensin-converting enzyme (0.25 U·mL^−1, from the rabbit lung); purchased Sigma-Aldrich (Shanghai, China); host or cells: rabbit lung (tissue-derived)
T1 sequence (P12822 34-1310): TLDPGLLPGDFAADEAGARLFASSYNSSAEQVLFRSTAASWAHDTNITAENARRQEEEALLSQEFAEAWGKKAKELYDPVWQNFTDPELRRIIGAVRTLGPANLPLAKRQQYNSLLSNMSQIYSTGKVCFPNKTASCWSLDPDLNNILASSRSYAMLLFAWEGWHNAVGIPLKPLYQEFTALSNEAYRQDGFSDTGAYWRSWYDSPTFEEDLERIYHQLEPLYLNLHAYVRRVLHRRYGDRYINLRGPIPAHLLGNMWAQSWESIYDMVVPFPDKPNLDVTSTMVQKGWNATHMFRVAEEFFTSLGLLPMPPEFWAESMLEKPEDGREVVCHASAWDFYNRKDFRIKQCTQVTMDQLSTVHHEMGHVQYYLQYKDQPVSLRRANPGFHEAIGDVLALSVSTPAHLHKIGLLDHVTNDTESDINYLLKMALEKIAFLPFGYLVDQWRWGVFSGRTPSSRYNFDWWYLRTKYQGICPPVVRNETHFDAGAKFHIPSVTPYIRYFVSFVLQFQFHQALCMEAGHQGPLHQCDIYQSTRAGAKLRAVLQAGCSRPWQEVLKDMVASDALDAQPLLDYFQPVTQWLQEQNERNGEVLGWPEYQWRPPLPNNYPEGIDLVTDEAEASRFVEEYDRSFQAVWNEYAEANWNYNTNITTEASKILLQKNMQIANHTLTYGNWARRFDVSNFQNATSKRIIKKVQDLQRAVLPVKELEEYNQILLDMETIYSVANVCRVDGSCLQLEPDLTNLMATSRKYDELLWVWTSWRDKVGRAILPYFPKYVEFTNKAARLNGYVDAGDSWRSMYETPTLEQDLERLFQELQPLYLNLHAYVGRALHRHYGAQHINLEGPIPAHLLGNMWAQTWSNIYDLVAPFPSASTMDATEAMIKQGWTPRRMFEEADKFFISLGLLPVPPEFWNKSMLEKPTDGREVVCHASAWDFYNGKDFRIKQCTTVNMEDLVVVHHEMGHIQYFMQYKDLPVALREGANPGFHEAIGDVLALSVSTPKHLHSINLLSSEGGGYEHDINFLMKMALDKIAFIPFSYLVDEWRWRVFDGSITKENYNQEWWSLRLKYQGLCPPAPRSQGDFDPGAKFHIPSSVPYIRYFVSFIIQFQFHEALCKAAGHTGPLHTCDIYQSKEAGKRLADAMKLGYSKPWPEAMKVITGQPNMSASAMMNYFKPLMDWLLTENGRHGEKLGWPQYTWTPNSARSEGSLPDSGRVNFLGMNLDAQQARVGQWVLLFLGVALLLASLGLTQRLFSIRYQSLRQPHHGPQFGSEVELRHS
Excerpt: as §1
ACE-inhibitory activity was measured according to the methods of Chen et al.. Nifedipine was used as a positive control. Results were reported as EC50 values.

[6] = test system: α-amylase (from Bacillus subtilis); test: α-Amylase inhibitory activity; format: biochemical; conditions: for α-Amylase Inhibitory Activity (%): fractions purified from M-F and VM-F using HILIC, all at the same concentration (not given), n = 3, mean ± SD; for EC50: natural purified peptide, Figure 3a, tests repeated three times, read-out: EC50 values of active peptides: α-amylase
Excerpt: as §1, §2

[7] = Ferric reducing capacity (reducing power, FRAP); conditions: natural purified peptide, Figure 3a, tests repeated three times, read-out: EC50 values of active peptides: FRAP
Experimental: The reducing power of the peptide fractions was assayed as described by Moayedi et al.. Vitamin C was used as a positive control. The reducing power of active peptides was assayed by determining EC50 values.

[8] = synthetic peptides; simulated gastrointestinal digestion; samples 90 to 1800 μg/mL; p > 0.05
Experimental: A series of samples with concentration range from 90 μg/mL (corresponding to 69.28 μM and 93.26 μM for […] and […], respectively) to 1800μg/mL were used in stability analysis.
Thermal stability and gastrointestinal digestion stability of two synthetic peptides were determined according to Chen et al.. The incubated temperature for peptide solutions was set as 20, 40, 60, and 80 °C, respectively. DPPH radical scavenging activities and ACE inhibitory activities of the peptide solutions were measured as the above description.

[9] = Thermal stability of synthetic peptides (DPPH and ACE activity retained); format: physicochemical; conditions: incubated at 20, 40, 60 and 80 °C, samples 90 to 1800 μg/mL, p > 0.05
Experimental: A series of samples with concentration range from 90 μg/mL (corresponding to 69.28 μM and 93.26 μM for [sequence] and [sequence], respectively) to 1800μg/mL were used in stability analysis.

ACE = conditions: data recorded in biopep database; read-out: EC50 (ACE inhibition); cited from earlier work
Excerpt: ACE catalyzes the conversion of angiotensin I to angiotensin II, a potent vasoconstrictor, and promotes degradation of the vasodilator bradykinin [31]; thus, inhibition of ACE activity may help with reducing blood pressure. Because high-molecular-weight peptides cannot occupy the active site of ACE [32], ACE-inhibitory peptides are typically 2–30 amino acids in length.

[10] = target: T2, angiotensin-converting enzyme (from the rabbit lung) (rabbit) (UniProt P12822)
T2 sequence: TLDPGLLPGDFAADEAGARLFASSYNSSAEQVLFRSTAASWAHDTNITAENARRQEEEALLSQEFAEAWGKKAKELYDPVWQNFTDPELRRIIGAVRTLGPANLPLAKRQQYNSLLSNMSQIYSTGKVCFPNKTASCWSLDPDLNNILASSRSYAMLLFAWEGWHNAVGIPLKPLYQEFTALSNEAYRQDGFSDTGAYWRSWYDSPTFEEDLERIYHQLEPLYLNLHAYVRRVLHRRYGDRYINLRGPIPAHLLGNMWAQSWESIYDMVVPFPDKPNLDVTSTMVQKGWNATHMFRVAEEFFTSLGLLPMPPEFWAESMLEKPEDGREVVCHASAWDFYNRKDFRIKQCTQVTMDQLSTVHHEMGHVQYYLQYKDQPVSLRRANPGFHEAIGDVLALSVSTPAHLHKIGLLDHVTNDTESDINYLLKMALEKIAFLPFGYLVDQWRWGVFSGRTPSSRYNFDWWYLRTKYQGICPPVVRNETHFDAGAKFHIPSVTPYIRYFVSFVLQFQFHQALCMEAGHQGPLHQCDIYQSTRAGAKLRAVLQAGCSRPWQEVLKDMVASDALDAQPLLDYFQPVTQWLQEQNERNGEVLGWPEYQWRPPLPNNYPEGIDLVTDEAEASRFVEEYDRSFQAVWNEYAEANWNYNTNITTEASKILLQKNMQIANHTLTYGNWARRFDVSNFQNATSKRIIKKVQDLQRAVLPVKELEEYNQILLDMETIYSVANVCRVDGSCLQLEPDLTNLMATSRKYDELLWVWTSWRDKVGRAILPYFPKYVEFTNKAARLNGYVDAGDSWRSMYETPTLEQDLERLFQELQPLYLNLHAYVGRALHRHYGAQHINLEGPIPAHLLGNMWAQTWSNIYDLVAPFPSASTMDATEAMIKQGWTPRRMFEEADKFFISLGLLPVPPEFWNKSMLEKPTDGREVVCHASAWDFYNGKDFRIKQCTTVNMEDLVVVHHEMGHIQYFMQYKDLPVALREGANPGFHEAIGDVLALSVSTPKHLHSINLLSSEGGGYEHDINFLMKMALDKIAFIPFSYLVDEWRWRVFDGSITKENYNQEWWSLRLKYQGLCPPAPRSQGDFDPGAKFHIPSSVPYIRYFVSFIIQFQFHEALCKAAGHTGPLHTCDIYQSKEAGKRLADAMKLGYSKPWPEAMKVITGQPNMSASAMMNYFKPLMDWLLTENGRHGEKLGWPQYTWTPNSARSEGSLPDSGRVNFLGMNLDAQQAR

In the case of “YIAEDAER [VM-P7, Tyr-Ile-Ala-Glu-Asp-Ala-Glu-Arg]”, the EC50 [1] is reported as 823 µM, the EC50 [2] is reported as 814 µM and the “number of fluorescent spots (FS) compared with negative control (MTZ without peptides)” value ([3]; low concentration) is reported as “no significant difference”. The “DPPH Radical Scavenging Activity (%)” value [4] was 82.60 ± 0.86%, the EC50 [4] was 185 µM and the “ACE-Inhibitory Activity (%)” value [5] was 74.95 ± 1.24%. The EC50 [5] was 236 µM, the “α-Amylase Inhibitory Activity (%)” value [6] was 53.85 ± 0.92% and the EC50 [6] was 942 µM. For the same molecule, the EC50 [7] was 856 µM, the “effect of gastrointestinal digestion treatment on EC50 values of DPPH radical scavenging and ACE inhibitory activities” value [8] was “have thermal and gastrointestinal stability” and the “effect of thermal treatment on EC50 values of DPPH radical scavenging and ACE inhibitory activities” value [9] was “have thermal and gastrointestinal stability”.

In the case of YLYEIAR, the EC50 (ACE) is listed as 16 µM.

In the case of YIPIQYVLSR, the EC50 (ACE) is listed as 132 µM.

For “YSQLENEFDR [M-P6, Tyr-Ser-Gln-Leu-Glu-Asn-Glu-Phe-Asp-Arg]”, the EC50 [1] was 589 µM, the EC50 [2] was 234 µM and the “number of fluorescent spots (FS) compared to the control group (no MTZ or peptides)” value ([3]; high concentration) was “more FS were detected”. For the same molecule, the “DPPH Radical Scavenging Activity (%)” value [4] was 91.87 ± 0.62%, the EC50 [4] was 96.7 µM and the “ACE-Inhibitory Activity (%)” value [5] was 84.81 ± 0.35%. The EC50 [5] was 75.6 µM, the “α-Amylase Inhibitory Activity (%)” value [6] was 56.15 ± 1.64% and the EC50 [6] was 692 µM. The EC50 [7] was 430 µM, the “effect of gastrointestinal digestion treatment on EC50 values of DPPH radical scavenging and ACE inhibitory activities” value [8] was “have thermal and gastrointestinal stability” and the “effect of thermal treatment on EC50 values of DPPH radical scavenging and ACE inhibitory activities” value [9] was “have thermal and gastrointestinal stability”.

In the case of YLYEIARR, the EC50 (ACE) is listed as 86 µM.

Molecule YIAEDAER [YIAEDAER (Tyr-Ile-Ala-Glu-Asp-Ala-Glu-Arg)] has an ACE-inhibitory activity (%) of the HILIC-purified fraction VM-P7 (enzyme activity; all fractions at the same concentration) [10] of 75%.

YSQLENEFDR [… (Tyr-Ser-Gln-Leu-Glu-Asn-Glu-Phe-Asp-Arg)] gave an ACE-inhibitory activity (%) of the HILIC-purified fraction M-P6 (enzyme activity; all fractions at the same concentration) [10] of 84.8%.
